Experimental data reported in patent publication US20250042862A1, “AROMATIC HETEROCYCLIC COMPOUND AND APPLICATION THEREOF” (Shanghai Institute of Materia Medica, Chinese Academy of …, priority 2021, published 2025).

target: human recombinant LSD1 protein (Homo sapiens (Human), UniProt O60341); experiment: In vitro enzyme inhibition activity assay - LSD1 (Lance Ultra TR-FRET); type: biochemical; conditions: all compounds tested in the form of hydrochloride
Experimental: The purpose of this experiment was to test the in vitro inhibitory activity of the compounds against LSD1. The human recombinant LSD1 protein used in the experiment was purchased from Active Motif, and the enzyme level activity testing assay of LSD1 was performed using the Lance Ultra LSD1 Histone H3 Lysine 4 Demethylase Assay Kit (PerkinElmer). Tris-buffer (50 mMTris-HCl, 50 mMNaCl, 0.01% Tween-20, 1 mM DTT, 10 μM FAD, 10% glycerol, pH 9.0) was first prepared, and after preparation, the LSD1 fractions required for test were placed in this buffer and incubated for one hour at room temperature; the fractions included 4 μL of substrate solution ([…] Bio-H3K4me2, 1-24aa), 4 μL of enzyme solution (4 nM LSD1), and 2 μL of inhibitor in a 384-well microplate. After these operations, another 5 μL of assay mixture containing Eu-labeled H3K4me0 antibody and ULight-Streptavidin anti-biotin protein was added to the system, after which the fluorescence intensity of the components to be tested was detected by using Envision (PerkinElmer) in TR-FRET mode (excitation wavelength of 320 nm, emission wavelength of 620 nm). The test was repeated a total of three times to minimize errors. The final IC50 data were calculated by the software GraphPad Prism 5, and finally the sigmoidal dose-response (variable slope) method was used to obtain the fitted curve.
The LSD1 inhibitory activities of representative compounds of the present application as well as the positive control compound CC90011 were provided in Table 2. All compounds were tested in the form of hydrochloride.

IC50, ≤ 30 nM:
COC1=CC=C(c2c(-c3ccc(C#N)c(F)c3)nc(N3CCC(N)CC3)n(C)c2=O)CC1F (stereo not drawn) [CC90011, reference compound]
Cn1ncc2cccc(-c3ccc4nc(N5CCC(N)CC5)nc(-c5ccc(C#N)c(F)c5)c4c3)c21 [Compound 11, 4-(2-(4-aminopiperidin-1-yl)-6-(1-methyl-1H-indazol-7-yl)quinazolin-4-yl)-2-fluorobenzonitrile]
Cc1cccc(C)c1-c1ccc2nc(N3CCC(N)CC3)nc(-c3ccc(C#N)c(F)c3)c2c1 [Compound 12, 4-(2-(4-Aminopiperidin-1-yl)-6-(2,6-dimethylphenyl)quinazolin-4-yl)-2-fluorobenzonitrile]
N#Cc1ccc(-c2nc(N3CCC(N)CC3)nc3ccc(-c4ccccc4C(F)(F)F)cc23)cc1F [Compound 14, 4-(2-(4-aminopiperidin-1-yl)-6-(2-(trifluoromethyl)phenyl)quinazolin-4-yl)-2-fluorobenzonitrile]
N#Cc1ccc(-c2nc(N3CCC(N)CC3)nc3ccc(-c4ccccc4Cl)cc23)cc1F [Compound 16, 4-(2-(4-aminopiperidin-1-yl)-6-(2-chlorophenyl)quinazolin-4-yl)-2-fluorobenzonitrile]
N#Cc1ccc(-c2nc(N3CCC(N)CC3)nc3ccc(-c4c(Cl)cccc4Cl)cc23)cc1F [Compound 20, 4-(2-(4-aminopiperidin-1-yl)-6-(2,6-dichlorophenyl)quinazolin-4-yl)-2-fluorobenzonitrile]
Cc1cccc(Cl)c1-c1ccc2nc(N3CCC(N)CC3)nc(-c3ccc(C#N)c(F)c3)c2c1 [Compound 21, 4-(2-(4-Aminopiperidin-1-yl)-6-(2-chloro-6-methylphenyl)quinazolin-4-yl)-2-fluorobenzonitrile]
N#Cc1ccc(-c2nc(N3CCC(N)CC3)nc3ccc(-c4c(F)cccc4Cl)cc23)cc1F [Compound 22, 4-(2-(4-Aminopiperidin-1-yl)-6-(2-chloro-6-fluorophenyl)quinazolin-4-yl)-2-fluorobenzonitrile]
N#Cc1ccc(-c2nc(N3CCC(N)CC3)nc3ccc(-c4cccc(F)c4C(F)(F)F)cc23)cc1F [Compound 23, 4-(2-(4-Aminopiperidin-1-yl)-6-(3-fluoro-2-(trifluoromethyl)phenyl)quinazolin-4-yl)-2-fluorobenzonitrile]
Cc1ccccc1-c1ccc2nc(NCC3CCNC3)nc(-c3ccc(C#N)c(F)c3)c2c1 (stereo not drawn) [Compound 34, 2-Fluoro-4-(2-((pyrrolidin-3-ylmethyl)amino)-6-(o-methylphenyl)quinazolin-4-yl)benzonitrile]
Cc1cccc(C)c1-c1ccc2nc(NC[C@H]3CCNC3)nc(-c3ccc(C#N)c(F)c3)c2c1 [Compound 45, (S)-4-(6-(2,6-dimethylphenyl)-2-((pyrrolidin-3-ylmethyl)amino)quinazolin-4-yl)-2-fluorobenzonitrile]
Cc1cc(C)c(-c2ccc3nc(NC[C@H]4CCNC4)nc(-c4ccc(C#N)c(F)c4)c3c2)c(C)c1 [Compound 46, (S)-4-(6-(2,4,6-trimethylphenyl)-2-((pyrrolidin-3-ylmethyl)amino)quinazolin-4-yl)-2-fluorobenzonitrile]
Cc1cccc(F)c1-c1ccc2nc(NC[C@H]3CCNC3)nc(-c3ccc(C#N)c(F)c3)c2c1 [Compound 48, (S)-2-fluoro-4-(6-(2-fluoro-6-methylphenyl)-2-((pyrrolidin-3-ylmethyl)amino)quinazolin-4-yl)benzonitrile]

IC50, 30 to 300 nM:
Cc1noc(C)c1-c1ccc2nc(N3CCC(N)CC3)nc(-c3ccc(C#N)c(F)c3)c2c1 [Compound 3, 4-(2-(4-aminopiperidin-1-yl)-6-(3,5-dimethylisoxazol-4-yl)quinazolin-4-yl)-2-fluorobenzonitrile]
Cc1ccccc1-c1ccc2nc(N3CCC(N)CC3)nc(-c3ccc(C#N)c(F)c3)c2c1 [Compound 6, 4-(2-(4-aminopiperidin-1-yl)-6-(o-methylphenyl)quinazolin-4-yl)-2-fluorobenzonitrile]
Cc1cccc(-c2ccc3nc(N4CCC(N)CC4)nc(-c4ccc(C#N)c(F)c4)c3c2)c1 [Compound 8, 4-(2-(4-aminopiperidin-1-yl)-6-(m-methylphenyl)quinazolin-4-yl)-2-fluorobenzonitrile]
Cn1ncc2cc(-c3ccc4nc(N5CCC(N)CC5)nc(-c5ccc(C#N)c(F)c5)c4c3)ccc21 [Compound 9, 4-(2-(4-aminopiperidin-1-yl)-6-(1-methyl-1H-indazol-5-yl)quinazolin-4-yl)-2-fluorobenzonitrile]
Cn1ncc2c(-c3ccc4nc(N5CCC(N)CC5)nc(-c5ccc(C#N)c(F)c5)c4c3)cccc21 [Compound 10, 4-(2-(4-aminopiperidin-1-yl)-6-(1-methyl-1H-indazol-4-yl)quinazolin-4-yl)-2-fluorobenzonitrile]
N#Cc1ccc(-c2nc(N3CCC(N)CC3)nc3ccc(-c4ccccc4OC(F)(F)F)cc23)cc1F [Compound 13, 4-(2-(4-aminopiperidin-1-yl)-6-(2-(trifluoromethoxy)phenyl)quinazolin-4-yl)-2-fluorobenzonitrile]
N#Cc1ccc(-c2nc(N3CCC(N)CC3)nc3ccc(-c4ccccc4F)cc23)cc1F [Compound 15, 4-(2-(4-aminopiperidin-1-yl)-6-(2-fluorophenyl)quinazolin-4-yl)-2-fluorobenzonitrile]
N#Cc1ccc(-c2nc(N3CCC(N)CC3)nc3ccc(-c4cccc(F)c4F)cc23)cc1F [Compound 17, 4-(2-(4-aminopiperidin-1-yl)-6-(2,3-difluorophenyl)quinazolin-4-yl)-2-fluorobenzonitrile]
COc1ccc(-c2ccc3nc(N4CCC(N)CC4)nc(-c4ccc(C#N)nc4)c3c2)cc1F [Compound 24, 5-(2-(4-aminopiperidin-1-yl)-6-(3-fluoro-4-methoxyphenyl)quinazolin-4-yl)pyridinecarbonitrile]
COc1ccc(-c2ccc3nc(N4CCC(N)CC4)nc(-c4ccc(C#N)cc4)c3c2)cc1F [Compound 25, 4-(2-(4-aminopiperidin-1-yl)-6-(3-fluoro-4-methoxyphenyl)quinazolin-4-yl)benzonitrile]
COc1ccc(-c2ccc3nc(NCC4CCNC4)nc(-c4ccc(C#N)c(F)c4)c3c2)cc1F (stereo not drawn) [Compound 29, 2-Fluoro-4-(6-(3-fluoro-4-methoxyphenyl)-2-((pyrrolidin-3-ylmethyl)amino)quinazolin-4-yl)benzonitrile]
COc1ccc(-c2ccc3nc(NC[C@H]4CCNC4)nc(-c4ccc(C#N)c(F)c4)c3c2)cc1F [Compound 35, (S)-2-fluoro-4-(6-(3-fluoro-4-methoxyphenyl)-2-((pyrrolidin-3-ylmethyl)amino)quinazolin-4-yl)benzonitrile]
COc1ccc(-c2ccc3nc(NC[C@@H]4CCNC4)nc(-c4ccc(C#N)c(F)c4)c3c2)cc1F [Compound 36, (R)-2-fluoro-4-(6-(3-fluoro-4-methoxyphenyl)-2-((pyrrolidin-3-ylmethyl)amino)quinazolin-4-yl)benzonitrile]
Cc1ccccc1-c1ccc2nc(NC[C@H]3CCNC3)nc(-c3ccc(C#N)c(F)c3)c2c1 [Compound 37, (S)-2-fluoro-4-(2-((pyrrolidin-3-ylmethyl)amino)-6-(o-methylphenyl)quinazolin-4-yl)benzonitrile]
Cc1ccccc1-c1ccc2nc(NC[C@@H]3CCNC3)nc(-c3ccc(C#N)c(F)c3)c2c1 [Compound 38, (R)-2-fluoro-4-(2-((pyrrolidin-3-ylmethyl)amino)-6-(o-methylphenyl)quinazolin-4-yl)benzonitrile]
N#Cc1ccc(-c2nc(NC[C@H]3CCNC3)nc3ccc(-c4ccccc4OC(F)(F)F)cc23)cc1F [Compound 39, (S)-2-fluoro-4-(2-((pyrrolidin-3-ylmethyl)amino)-6-(2-(trifluoromethoxy)phenyl)quinazolin-4-yl)benzonitrile]
N#Cc1ccc(-c2nc(NC[C@H]3CCNC3)nc3ccc(-c4ccccc4F)cc23)cc1F [Compound 41, (S)-2-fluoro-4-(2-((pyrrolidin-3-ylmethyl)amino)-6-(2-fluorophenyl)quinazolin-4-yl)-2-fluorobenzonitrile]
N#Cc1ccc(-c2nc(NC[C@H]3CCNC3)nc3ccc(-c4cccc(F)c4F)cc23)cc1F [Compound 43, (S)-2-fluoro-4-(2-((pyrrolidin-3-ylmethyl)amino)-6-(2,3-difluorophenyl)quinazolin-4-yl)-2-fluorobenzonitrile]
Cc1cscc1-c1ccc2nc(NC[C@H]3CCNC3)nc(-c3ccc(C#N)c(F)c3)c2c1 [Compound 44, (S)-2-fluoro-4-(6-(4-methylthiophen-3-yl)-2-((pyrrolidin-3-ylmethyl)amino)quinazolin-4-yl)benzonitrile]
Cc1c(F)cccc1-c1ccc2nc(NC[C@H]3CCNC3)nc(-c3ccc(C#N)c(F)c3)c2c1 [Compound 47, (S)-2-fluoro-4-(6-(3-fluoro-2-methylphenyl)-2-((pyrrolidin-3-ylmethyl)amino)quinazolin-4-yl)benzonitrile]
